The term IC50 denotes the point on the concentration scale where inhibition reaches its midpoint.

Assay [1] in a line: Cytotoxicity against human HMLE cells assessed as reduction in cell metabolic activity after 72 hrs by MTS assay. Format: ADME, cell-based. In general terms: Formazan colour is commonly taken as a measure of viable cells.
The test system of assay [2] is MDA-MB-231. The experiment in a line: Cytotoxicity against human MDA-MB-231 cells assessed as reduction in cell metabolic activity after 72 hrs by MTS assay. The assay is classed as functional, cell-based. The conditions noted are these: MDA-MB-231, 72 h.

As for `CN[C@@H]1C[C@H]2O[C@@](C)([C@@H]1OC)n1c3cc(O)ccc3c3c4c(c5c6ccccc6n2c5c31)C(=O)NC4`, the IC50 was determined as 58.7 nM in assay [1] and 3.4 nM in assay [2]. On the same counts, the results for `CN[C@@H]1C[C@H]2O[C@@](C)([C@@H]1OC)n1c3ccc(O)cc3c3c4c(c5c6ccccc6n2c5c31)C(=O)NC4` are 27.5 nM and 2 nM. In the case of `CN[C@@H]1C[C@H]2O[C@@](C)([C@@H]1OC)n1c3ccccc3c3c4c(c5c6ccccc6n2c5c31)C(=O)NC4` [STAUROSPORINE], in assay [2], the 50% inhibitory concentration (IC50) was determined as 2.5 nM.

Source of the values: ChEMBL document CHEMBL4725491, “Staurosporine Analogs Via C-H Borylation” (ACS Med Chem Lett, 2020).
